{"source": "patent US20230357253A1", "about": "“AGONISTS OF STIMULATOR OF INTERFERON GENES STING” (THE SCRIPPS RESEARCH INSTITUTE, priority 2020, published 2023)"}
{"system": "THP-1 Lucia ISG cells", "test": "ISRE-luciferase assay (ISG-LUC activation)", "format": "cell-based", "conditions": "Homo sapiens, THP1-Lucia ISG, 24 hours, luciferase reporter", "method": "ISRE-luciferase assay. THP-1 Lucia ISG cells were resuspended in low-serum growth media (2% FBS) at a density of 5×10^5 cells/ml and treated with test article or vehicle (DMSO). 50 μL of cells were seeded into each well of a 384-well white greiner plates and incubated for 24 hours. To evaluate expression of the luciferase reporter, 30 μl of Quanti-luc (Invivogen) detection reagent was added to each well and luminescence was read using an Envision plate reader (Perkin Elmer) set with an integration time of 0.1 seconds. For each cell type, luminescence signals for test article samples were normalized to vehicle-treated samples and reported as relative light units (RLU).", "units": {"EC50": "nM"}}
{"compound": "O=C(Nc1cc(CCCc2cc(NC(=O)c3ccc(-n4ccnc4)nn3)c(C(=O)O)cc2F)c(F)cc1C(=O)O)c1ccc(-n2ccnc2)nn1", "note": "[Compound 3, 4,4′-(propane-1,3-diyl)bis(2-(6-(1H-imidazol-1-yl)pyridazine-3-carbox-amido)-5-fluorobenzoic acid)]", "EC50": "50 to 500"}
{"compound": "O=C(Nc1cc(CCOc2cc(NC(=O)c3ccc(-c4cn[nH]c4)nn3)c(C(=O)O)cc2F)c(F)cc1C(=O)O)c1ccc(-c2cn[nH]c2)nn1", "note": "[Compound 4, 2-(6-(1H-pyrazol-4-yl)pyridazine-3-carboxamido)-4-(5-(6-(1H-pyrazol-4-yl)pyridazine-3-carboxamido)-4-carboxy-2-fluorophenethoxy)-5-fluorobenzoic acid]", "EC50": "50 to 500"}
{"compound": "CC(CCOc1cc(NC(=O)c2ccc(-n3ccnc3)nn2)c(C(=O)O)cc1F)Oc1cc(NC(=O)c2ccc(-n3ccnc3)nn2)c(C(=O)O)cc1F", "note": "(stereo not drawn) [Compound 5, 4,4′-(butane-1,3-diylbis(oxy))bis(2-(6-(1H-imidazol-1-yl)pyridazine-3-carboxamido)-5-fluorobenzoic acid)]", "EC50": "50 to 500"}
{"compound": "COc1cc(C(=O)O)c(NC(=O)c2ccc(-n3ccnc3)nn2)cc1OCCc1cc(C(=O)O)c(NC(=O)c2ccc3nnnn3n2)cc1Cl", "note": "[Compound 6, 2-(6-(1H-imidazol-1-yl)pyridazine-3-carboxamido)-4-(5-carboxy-2-chloro-4-(tetrazolo[1,5-b]pyridazine-6-carboxamido)phenethoxy)-5-methoxybenzoic acid]", "EC50": "50 to 500"}
{"compound": "O=c1oc(-c2ccc(-n3ccnc3)nn2)nc2c(F)c(OCCCCOc3c(F)cc4c(=O)oc(-c5ccc(-n6ccnc6)nn5)nc4c3F)c(F)cc12", "note": "[Compound 9, 7,7′-(butane-1,4-diylbis(oxy))bis(2-(6-(1H-imidazol-1-yl)pyridazin-3-yl)-6,8-difluoro-4H-benzo[d][1,3]oxazin-4-one)]", "EC50": "500 to 5000"}
{"compound": "O=C(Nc1cc(OCCCOc2cc(C(=O)O)c(NC(=O)c3ccc(-n4ccnc4)nn3)cc2F)c(F)cc1C(=O)O)c1ccc(-n2ccnc2)nn1", "note": "[Compound 10, 2-(6-(1H-imidazol-1-yl)pyridazine-3-carboxamido)-5-(3-(5-(6-(1H-imidazol-1-yl)pyridazine-3-carboxamido)-4-carboxy-2-fluorophenoxy)propoxy)-4-fluoro-benzoic acid]", "EC50": "50 to 500"}
{"compound": "O=C(Nc1cc(CCCc2ccc(NC(=O)c3ccc4nnnn4n3)c(C(=O)O)c2)ccc1C(=O)O)c1ccc2nnnn2n1", "note": "[Compound 13]", "EC50": "500 to 5000"}
{"compound": "O=C(Nc1cc(CCCc2ccc(C(=O)O)c(NC(=O)c3ccc4nnnn4n3)c2)ccc1C(=O)O)c1ccc2nnnn2n1", "note": "[Compound 14]", "EC50": "500 to 5000"}
{"compound": "O=C(Nc1cc(OCCCCOc2cc(NC(=O)c3ccc(-n4ccnc4)nn3)c(C(=O)O)cc2F)ccc1C(=O)O)c1ccc(-n2ccnc2)nn1", "note": "[Compound 19]", "EC50": "500 to 5000"}
{"compound": "COC(=O)c1cc(Cl)c(OCCCCOc2cc(NC(=O)c3ccc(-n4ccnc4)nn3)c(C(=O)OC)cc2Cl)cc1NC(=O)c1ccc(-n2ccnc2)nn1", "note": "[Compound 23]", "EC50": "< 50"}
{"compound": "O=C(Nc1cc(OCCOc2cc(C(=O)O)c(NC(=O)c3ccc4nnnn4n3)cc2F)ccc1C(=O)O)c1ccc2nnnn2n1", "note": "[Compound 26]", "EC50": "> 5000"}
{"compound": "O=C(Nc1cc(OCCCOc2cc(C(=O)O)c(NC(=O)c3ccc4nnnn4n3)cc2F)c(F)cc1C(=O)O)c1ccc2nnnn2n1", "note": "[Compound 33]", "EC50": "> 5000"}
{"compound": "COC(=O)c1cc(F)c(OCCCCOc2cc(NC(=O)c3ccc(-n4ccnc4)nn3)c(C(=O)OC)cc2F)cc1NC(=O)c1ccc(-n2ccnc2)nn1", "note": "[Compound 34]", "EC50": "> 5000"}
{"compound": "O=C(Nc1cc(OCCCCOc2ccc(C(=O)O)c(NC(=O)c3ccc(-n4ccnc4)nn3)c2)ccc1C(=O)O)c1ccc(O)nn1", "note": "[Compound 35]", "EC50": "> 5000"}
{"compound": "COC(=O)c1cc(F)c(OCCCCOc2c(F)cc(C(=O)OC)c(NC(=O)c3ccc(-n4ccnc4)nn3)c2F)c(F)c1NC(=O)c1ccc(-n2ccnc2)nn1", "note": "[Compound 36]", "EC50": "< 50"}
{"compound": "O=C(Nc1c(C(=O)O)cc(F)c(OCCCCOc2c(F)cc(C(=O)O)c(NC(=O)c3ccc(-n4ccnc4)nn3)c2F)c1F)c1ccc(-n2ccnc2)nn1", "note": "[Compound 38]", "EC50": "50 to 500"}
{"compound": "O=C(Nc1c(C(=O)O)cc(F)c(OCCCCOc2c(F)cc(C(=O)O)c(NC(=O)c3ccc(-n4ccnc4)nn3)c2F)c1F)c1ccc(O)nn1", "note": "[Compound 39]", "EC50": "> 5000"}
{"compound": "O=c1oc(-c2ccc(-n3ccnc3)nn2)nc2cc(OCCCCOc3cc4nc(-c5ccc(-n6ccnc6)nn5)oc(=O)c4cc3F)c(F)cc12", "note": "[Compound 40]", "EC50": "< 50"}
{"compound": "COc1cc2c(=O)oc(-c3ccc(-n4ccnc4)nn3)nc2cc1OCCCCOc1cc2nc(-c3ccc(-n4ccnc4)nn3)oc(=O)c2cc1OC", "note": "[Compound 41]", "EC50": "< 50"}
{"compound": "O=C(Nc1cc(OCCCCOc2ccc(C(=O)O)c(NC(=O)c3ccc(-n4ccnc4)nn3)c2)ccc1C(=O)O)c1cccnn1", "note": "[Compound 44]", "EC50": "> 5000"}
{"compound": "O=C(Nc1cc(OCCCCOc2cnc(C(=O)O)c(NC(=O)c3ccc(-n4ccnc4)nn3)c2)cnc1C(=O)O)c1ccc(-n2ccnc2)nn1", "note": "[Compound 45]", "EC50": "> 5000"}
{"compound": "COC(=O)c1cc(F)c(CCCc2cc(NC(=O)c3ccc(-n4ccnc4)nn3)c(C(=O)OC)cc2F)cc1NC(=O)c1ccc(-n2ccnc2)nn1", "note": "[Compound 51]", "EC50": "< 50"}
{"compound": "COC(=O)c1ccc(CCCc2ccc(NC(=O)c3ccc(-n4ccnc4)nn3)c(C(=O)OC)c2)cc1NC(=O)c1ccc(-n2ccnc2)nn1", "note": "[Compound 53]", "EC50": "> 5000"}
{"compound": "COC(=O)c1cc(F)c(CCCc2cc(NC(=O)c3ccc(-n4ccnc4)nn3)c(C(=O)OC)cc2OC)cc1NC(=O)c1ccc(-n2ccnc2)nn1", "note": "[Compound 54]", "EC50": "< 50"}
{"compound": "COc1cc(C(=O)O)c(NC(=O)c2ccc(-n3ccnc3)nn2)cc1CCCc1ccc(C(=O)O)c(NC(=O)c2ccc(-n3ccnc3)nn2)c1", "note": "[Compound 56]", "EC50": "50 to 500"}
{"compound": "COc1cc(C(=O)O)c(NC(=O)c2ccc(-n3ccnc3)nn2)cc1CCCc1cc(NC(=O)c2ccc(-n3ccnc3)nn2)c(C(=O)O)cc1F", "note": "[Compound 59]", "EC50": "50 to 500"}
{"compound": "O=C(Nc1cc(CCCc2ccc(C(=O)O)c(NC(=O)c3ccc4nnnn4n3)c2)ccc1C(=O)O)c1ccc(-n2ccnc2)nn1", "note": "[Compound 63]", "EC50": "> 5000"}
{"compound": "O=C(Nc1cc(CCCc2cc(NC(=O)c3ccc(-n4ccnc4)nn3)c(C(=O)O)cc2Cl)ccc1C(=O)O)c1ccc(-n2ccnc2)nn1", "note": "[Compound 66]", "EC50": "50 to 500"}
{"compound": "O=C(Nc1cc(CCCc2cc(NC(=O)c3ccc4nnnn4n3)c(C(=O)O)cc2F)c(F)cc1C(=O)O)c1ccc(-n2ccnc2)nn1", "note": "[Compound 67]", "EC50": "50 to 500"}
{"compound": "O=C(Nc1cc(CCCc2cc(NC(=O)c3ccc(-n4ccnc4)nn3)c(C(=O)O)cc2F)ccc1C(=O)O)c1ccc(-n2ccnc2)nn1", "note": "[Compound 68]", "EC50": "50 to 500"}
{"compound": "O=C(Nc1cc(CCCc2cc(C(=O)O)c(NC(=O)c3ccc(-n4ccnc4)nn3)cc2F)c(F)cc1C(=O)O)c1ccc(-n2ccnc2)nn1", "note": "[Compound 70]", "EC50": "500 to 5000"}
{"compound": "O=C(Nc1cc(CCCc2cc(C(=O)O)c(NC(=O)c3ccc(-n4ccnc4)nn3)cc2F)ccc1C(=O)O)c1ccc(-n2ccnc2)nn1", "note": "[Compound 78]", "EC50": "50 to 500"}
{"compound": "O=C(Nc1cc(CCCc2cc(C(=O)O)c(NC(=O)c3ccc4nnnn4n3)cc2F)c(F)cc1C(=O)O)c1ccc(-n2ccnc2)nn1", "note": "[Compound 90]", "EC50": "500 to 5000"}
{"compound": "O=C(Nc1cc(F)c(CCCc2cc(NC(=O)c3ccc4nnnn4n3)c(C(=O)O)cc2F)cc1C(=O)O)c1ccc(-n2ccnc2)nn1", "note": "[Compound 94]", "EC50": "50 to 500"}
{"compound": "COC(=O)c1cc(Cl)c(CCCc2ccc(C(=O)OC)c(NC(=O)c3ccc4nnnn4n3)c2)cc1NC(=O)c1ccc(-n2ccnc2)nn1", "note": "[Compound 106]", "EC50": "< 50"}
{"compound": "COC(=O)c1cc(F)c(CCOc2cc(NC(=O)c3ccc4nnnn4n3)c(C(=O)OC)cc2F)cc1NC(=O)c1ccc(-n2ccnc2)nn1", "note": "[Compound 113]", "EC50": "< 50"}
{"compound": "O=C(Nc1cc(CCCOc2cc(NC(=O)c3ccc(-n4ccnc4)nn3)c(C(=O)O)cc2F)c(F)cc1C(=O)O)c1ccc(-n2ccnc2)nn1", "note": "[Compound 125]", "EC50": "500 to 5000"}
{"compound": "O=C(Nc1cc(CCCOc2cc(NC(=O)c3ccc4nnnn4n3)c(C(=O)O)cc2F)c(F)cc1C(=O)O)c1ccc(-n2ccnc2)nn1", "note": "[Compound 126]", "EC50": "500 to 5000"}
{"compound": "O=C(Nc1cc(CCCCc2cc(C(=O)O)c(NC(=O)c3ccc(-n4ccnc4)nn3)cc2F)c(F)cc1C(=O)O)c1ccc(-n2ccnc2)nn1", "note": "[Compound 127]", "EC50": "500 to 5000"}
{"compound": "COc1cc(C(=O)O)c(NC(=O)c2ccc(-n3ccnc3)nn2)cc1OCCc1cc(C(=O)O)c(NC(=O)c2ccc(-n3ccnc3)nn2)cc1C#N", "note": "[Compound 130]", "EC50": "50 to 500"}
{"compound": "COC(=O)Cc1cc(F)c(CCOc2cc(NC(=O)c3ccc(-n4ccnc4)nn3)c(C(=O)OC)cc2F)cc1NC(=O)c1ccc(-n2ccnc2)nn1", "note": "[Compound 131]", "EC50": "500 to 5000"}
{"compound": "O=C(Nc1cc(CSCc2cc(NC(=O)c3ccc(-n4ccnc4)nn3)c(C(=O)O)cc2F)c(F)cc1C(=O)O)c1ccc(-n2ccnc2)nn1", "note": "[Compound 132]", "EC50": "< 50"}
{"compound": "COc1nc(C(=O)O)c(NC(=O)c2ccc(-n3ccnc3)nn2)cc1CCCc1cc(NC(=O)c2ccc(-n3ccnc3)nn2)c(C(=O)O)cc1F", "note": "[Compound 134]", "EC50": "50 to 500"}
{"compound": "O=C(Nc1cc(CCOc2cc(C(=O)O)c(NC(=O)c3ccc(-n4ccnc4)nn3)cc2F)c(F)cc1C(=O)O)c1ccc(-n2ccnc2)nn1", "note": "[Compound 141]", "EC50": "50 to 500"}
{"compound": "O=C(Nc1cc(OCCc2cc(C(=O)O)c(NC(=O)c3ccc(-n4ccnc4)nn3)cc2F)c(F)cc1C(=O)O)c1ccc(-n2ccnc2)nn1", "note": "[Compound 144]", "EC50": "50 to 500"}
{"compound": "COC(=O)c1cc(F)c(OCCc2c(OC)cc(NC(=O)c3ccc(-n4ccnc4)nn3)c(C(=O)OC)c2F)cc1NC(=O)c1ccc(-n2ccnc2)nn1", "note": "[Compound 150]", "EC50": "> 5000"}
{"compound": "COC(=O)c1cc(F)c(OCCc2cc(NC(=O)c3ccc(-n4ccnc4)nn3)c(C(O)C(=O)OC)cc2F)cc1NC(=O)c1ccc(-n2ccnc2)nn1", "note": "(stereo not drawn) [Compound 152]", "EC50": "500 to 5000"}
{"compound": "COC(=O)c1cc(F)c(COCc2cc(NC(=O)c3ccc(-n4ccnc4)nn3)c(C(=O)OC)cc2F)cc1NC(=O)c1ccc(-n2ccnc2)nn1", "note": "[Compound 155]", "EC50": "< 50"}
